Experiment [1] has as its target human SOS1 (loading of human K-Ras^G12C-GDP with fluorescent GTP-analog) (Homo sapiens, UniProt Q07889). As to the kind of experiment: Biochemical assay 3: K-Ras^G12C activation assay by hSOS1 (HTRF). Conditions: read-out: Assay 3 (KRAS-Activation by SOS no GTP) activity expressed as % inhibition at 20 μM; no GTP; at 20 μM. From the text:
Biochemical assay 3: K-Ras^G12C Activation Assay by hSOS1
K-Ras is a small GTPase that can bind GDP and GTP. The guanine nucleotide exchange factor SOS catalyzes the activation of K-Ras by promoting the exchange of GDP to GTP. SOS binds to K-Ras-GDP thereby opening the GDP-binding pocket to facilitate GDP release. Rebinding of excess nucleotide leads to dissociation of the K-Ras-SOS intermediate complex leaving K-Ras loaded with the nucleotide.
This assay quantifies human SOS1-mediated loading of human K-Ras^G12C-GDP with a fluorescent GTP-analog. Detection of successful loading is achieved by measuring homogenous time-resolved fluorescence resonance energy transfer (HTRF) from antiGST-Terbium (FRET donor) bound to GST-K-RasG12C to the loaded fluorescent GTP analog (FRET-acceptor).
The fluorescent GTP-analog EDA-GTP-Dy647P1 (2′/3′-O-(2-Aminoethyl-carbamoyl)-guanosine-5′-triphosphate labelled with Dy647P1 (Dyomics GmbH, Germany)) was synthesized by Jena Biosciences GmbH (Germany) and supplied as a 1 mM aqueous solution.
(§1) The assay buffer contained 10 mM HEPES pH 7.4 (Applichem), 150 mM NaCl (Sigma), 5 mM MgCl2 (Sigma), 1 mM DTT (Thermofisher), 0.05% BSA Fraction V, pH 7.0, (ICN Biomedicals), 0.0025% (v/v) Igepal (Sigma).
Concentrations of protein batches used were optimized to be within the linear range of the HTRF signal. A Ras working solution was prepared in assay buffer containing typically 100 nM GST-hK-RasG12C and 2 nM antiGST-Tb (Cisbio, France). A hSOS1 working solution was prepared in assay buffer containing typically 20 nM hSOS1 and 200 nM EDA-GTP-Dy647P1. An inhibitor control solution was prepared in assay buffer containing 200 nM EDA-GTP-Dy647P1 without hSOS1.
(§2) Fifty nl of a 100-fold concentrated solution of the test compound in DMSO were transferred into a black microtiter test plate (384 or 1536, Greiner Bio-One, Germany). For this, either a Hummingbird liquid handler (Digilab, MA, USA) or an Echo acoustic system (Labcyte, CA, USA) was used.
All steps of the assay were performed at 20° C. A volume of 2.5 μl of the Ras working solution was added to all wells of the test plate using a Multidrop dispenser (Thermo Labsystems). After 10 min preincubation, 2.5 μl of the hSOS1 working solution were added to all wells except for those wells at the side of the test plate that were subsequently filled with 2.5 μl of the inhibitor control solution. After 30 min incubation the fluorescence was measured with a Pherastar (BMG, Germany) using the HTRF module (excitation 337 nm, emission 1: 620 nm, emission 2: 665 nm).
(§3) IC50 values were calculated by 4-Parameter fitting using a commercial software package (Genedata Screener, Switzerland).
Background: Time-resolved FRET reads energy transfer from a long-lived donor to a nearby acceptor.

The target of experiment [2] is human SOS1 (nucleotide exchange of K-Ras^G12C) (Homo sapiens, UniProt Q07889). As to the kind of experiment: Biochemical assay 2: K-Ras^G12C activation assay by hSOS1 at high GTP concentration (HTRF). As to conditions: read-out: Assay 2 (KRAS-Activation by SOS high GTP) activity expressed as % inhibition at 20 μM; high GTP; at 20 μM.
Description: Biochemical Assay 2: K-Ras^G12C Activation Assay by hSOS1 at High GTP Concentration
This assay quantifies human SOS1-mediated nucleotide exchange of K-Ras^G12C preloaded with a fluorescent […] and in presence of an excess of free GTP. Loaded hK-Ras^G12C generates a high HTRF-signal by energy transfer from antiGST-Terbium (FRET donor) bound to K-Ras to the loaded fluorescent GDP analog (FRET-acceptor). SOS1 activity exchanges the fluorescent GDP for non-fluorescent GTP and therefore leads to a reduction of the HTRF signal.
The fluorescent GDP-analog EDA-GDP-Dy647P1 (2′/3′-O-(2-Aminoethyl-carbamoyl)-guanosine-5′-diphosphate labelled with Dy647P1 (Dyomics GmbH, Germany)) was synthesized by Jena Biosciences GmbH (Germany) and supplied as a 1 mM aqueous solution.
Concentrations of protein batches used were optimized to be within the linear range of the HTRF signal.
Preparation of GST-tagged hK-Ras^Gl2C loaded with fluorescent nucleotide was performed as follows: incubation of 11.5 μM hK-Ras^Gl2C with 5-fold excess GDP-Dy647 nucleotide (54 μM) in 500 μl NLS-buffer (RAS activation Kit Jena Bioscience, Kat. #PR-950) for 10 min at 37° C. Addition of 20 μl 1 M MgCl2 (Sigma) to final 40 mM and store on ice. Purification into buffer (10 mM HEPES pH 7.4 (Applichem), 150 mM NaCl (Sigma), 5 mM MgCl2 (Sigma)) by use of a PD-Minitrap desalting column (GE Healthcare). Concentration of 1 ml purified hK-Ras-GDP-Dy647 is approx. 4-5 μM.
as §1
A Ras working solution was prepared in assay buffer containing typically 80 nM loaded GST-hK-RasG12C-EDA-GDP-Dy647P1 and 2 nM antiGST-Tb (Cisbio, France). A hSOS1 working solution was prepared in assay buffer containing typically 8 nM His-hSOS1 and 100 μM GTP (Jena Bioscience, Germany). An inhibitor control solution was prepared in assay buffer containing the same concentration of […].
as §2
All steps of the assay were performed at 20° C. A volume of 2.5 μl of the Ras working solution was added to all wells of the test plate using a Multidrop dispenser (Thermo Labsystems). After 2 min preincubation, 2.5 μl of the hSOS1 working solution were added to all wells except for those wells at the side of the test plate that were subsequently filled with 2.5 μl of the inhibitor control solution. After 20 min incubation the fluorescence was measured with a Pherastar (BMG, Germany) using the HTRF module (excitation 337 nm, emission 1: 620 nm, emission 2: 665 nm).
as §3

Molecules are shown by their SMILES.

As a reminder, the inhibition is the drop in the measured response relative to a control, in per cent. Regarding `COc1cc2nc(C)nc(N[C@@H](C)c3ccc(-c4cncnc4)s3)c2cc1OC` (stereo in doubt) [Example 42, 6,7-dimethoxy-2-methyl-N-{1-[5-(pyrimidin-5-yl)thiophen-2-yl]ethyl}quinazolin-4-amine], in experiment [1], the inhibition at 20 µM stood at 48%.

Regarding `COc1cc2nc(C)nc(N[C@@H](C)c3ccc(-c4ccc5c(ccn5C)c4)s3)c2cc1OC` (stereo in doubt) [Example 49, 6,7-dimethoxy-2-methyl-N-{1-[5-{1-methyl-1H-indol-5-yl)thiophen-2-yl]ethyl}quinazolin-4-amine], the inhibition at 20 µM came out at 35% in experiment [2] and 36% in experiment [1].

As for `COCc1ccccc1-c1ccc([C@H](C)Nc2nc(C)nc3cc(OC)c(OC)cc23)s1` (stereo in doubt) [Example 50, 6,7-dimethoxy-N-[1-{5-[2-(methoxymethyl)phenyl]thiophen-2-yl}ethyl]-2-methylquinazolin-4-amine], the inhibition at 20 µM in experiment [1] came out at 23%.

Consider `COc1cc2nc(C)nc(N[C@@H](C)c3ccc(-c4cccc(C(=O)N(C)C)c4)s3)c2cc1OC` (stereo in doubt) [Example 51, 3-(5-{1-[(6,7-dimethoxy-2-methylquinazolin-4-yl)amino]ethyl}thiophen-2-yl)-N,N-dimethylbenzamide], for which the inhibition at 20 µM in experiment [1] was determined as 52%.

Regarding `COc1cc2nc(C)nc(N[C@@H](C)c3ccc(-c4ccc(CO)s4)s3)c2cc1OC` (stereo in doubt) [Example 52, (5′-{1-[(6,7-dimethoxy-2-methylquinazolin-4-yl)amino]ethyl}-2,2′-bithiophen-5-yl)methanol], in experiment [1], the inhibition at 20 µM is 43%.

As for `COc1cc2nc(C)nc(N[C@@H](C)c3ccc(-c4ccc5c(c4)OCCO5)s3)c2cc1OC` (stereo in doubt) [Example 98, N-{1-[5-(2,3-dihydro-1,4-benzodioxin-6-yl)thiophen-2-yl]ethyl}-6,7-dimethoxy-2-methylquinazolin-4-amine], the inhibition at 20 µM in experiment [2] was found to be 43%; in experiment [1] it was 24%.

Regarding `COc1cc2nc(C)nc(N[C@@H](C)c3ccc(-c4ccc(-c5nnc(C)o5)cc4)s3)c2cc1OC` (stereo in doubt) [Example 128, 6,7-dimethoxy-2-methyl-N-[1-{5-[4-(5-methyl-1,3,4-oxadiazol-2-yl)phenyl]thiophen-2-yl}ethyl]quinazolin-4-amine], in experiment [1], the inhibition at 20 µM worked out at 16%.

For `COc1cc2nc(C)nc(N[C@@H](C)c3ccc(-c4ccc(CNC(C)=O)cc4)s3)c2cc1OC` (stereo in doubt) [Example 138, N-[4-(5-{1-[(6,7-dimethoxy-2-methylquinazolin-4-yl)amino]ethyl}thiophen-2-yl)benzyl)acetamide], in experiment [1], the inhibition at 20 µM is 40%.

With `COc1cc2nc(C)nc(N[C@@H](C)c3ccc(-c4cccc(CNS(C)(=O)=O)c4)s3)c2cc1OC` (stereo in doubt) [Example 139, N-[3-(5-{1-[(6,7-dimethoxy-2-methylquinazolin-4-yl)amino]ethyl}thiophen-2-yl)benzyl]methanesulfonamide], in experiment [1], the inhibition at 20 µM is 41%.

As to `COc1cc2nc(C)nc(N[C@@H](C)c3ccc(-c4ccc(CNS(C)(=O)=O)cc4)s3)c2cc1OC` (stereo in doubt) [Example 140, N-[4-(5-{1-[(6,7-dimethoxy-2-methylquinazolin-4-yl)amino]ethyl}thiophen-2-yl)benzyl]methanesulfonamide], the inhibition at 20 µM in experiment [1] was 33%.

For the molecule `CCCNC(=O)c1ccc(-c2ccc([C@H](C)Nc3nc(C)nc4cc(OC)c(OC)cc34)s2)cc1` (stereo in doubt) [Example 141, 4-(5-{1-[(6,7-dimethoxy-2-methylquinazolin-4-yl)amino]ethyl}thiophen-2-yl)-N-propylbenzamide], the inhibition at 20 µM in experiment [2] turned out to be 25%.

Turning to `COc1cc2nc(C)nc(N[C@@H](C)c3ccc(-c4ccc(S(C)(=O)=O)cc4)s3)c2cc1OC` (stereo in doubt) [Example 149, 6,7-dimethoxy-2-methyl-N-[1-{5-[4-(methylsulfonyl)phenyl]thiophen-2-yl}ethyl]quinazolin-4-amine], in experiment [1], the inhibition at 20 µM was found to be 17%.

For the molecule `COc1cc2nc(C)nc(N[C@@H](C)c3ccc(-c4cccc(OC(F)(F)F)c4)s3)c2cc1OC` (stereo in doubt) [Example 151, 6,7-dimethoxy-2-methyl-N-[1-{5-[3-(trifluoromethoxy)phenyl]thiophen-2-yl}ethyl]quinazolin-4-amine], in experiment [2], the inhibition at 20 µM came out at 51%.

Turning to `COc1cc2nc(C)nc(N[C@@H](C)c3ccc(-c4ccc5c(c4)OCO5)s3)c2cc1OC` (stereo in doubt) [Example 163, N-{1-[5-(1,3-benzodioxol-5-yl)thiophen-2-yl]ethyl}-6,7-dimethoxy-2-methylquinazolin-4-amine], the inhibition at 20 µM came to 42% in experiment [2] and 35% in experiment [1].

Regarding `COc1cc2nc(C)nc(N[C@@H](C)c3ccc(-c4cccc(NS(C)(=O)=O)c4)s3)c2cc1OC` (stereo in doubt) [Example 165, N-[3-(5-{1-[(6,7-dimethoxy-2-methylquinazolin-4-yl)amino]ethyl}thiophen-2-yl)phenyl]methanesulfonamide], the inhibition at 20 µM in experiment [1] turned out to be 32%.

In the case of `COc1cccc(-c2ccc([C@H](C)Nc3nc(C)nc4cc(OC)c(OC)cc34)s2)c1` (stereo in doubt) [Example 167, 6,7-dimethoxy-N-{1-[5-(3-methoxyphenyl)thiophen-2-yl]ethyl}-2-methylquinazolin-4-amine], the values for the inhibition at 20 µM in experiment [2] and in experiment [1] were 40% and 37%, respectively.

Consider `COc1cc2nc(C)nc(N[C@@H](C)c3ccc(-c4cccc(S(C)(=O)=O)c4)s3)c2cc1OC` (stereo in doubt) [Example 173, 6,7-dimethoxy-2-methyl-N-[1-{5-[3-(methylsulfonyl)phenyl]thiophen-2-yl}ethyl]quinazolin-4-amine], for which, in experiment [1], the inhibition at 20 µM was 48%.

With `COc1cc2nc(C)nc(N[C@@H](C)c3ccc(-c4ccc(C(=O)N(C)C)cc4)s3)c2cc1OC` (stereo in doubt) [Example 176, 4-(5-{1-[(6,7-dimethoxy-2-methylquinazolin-4-yl)amino]ethyl}thiophen-2-yl)-N,N-dimethylbenzamide], the inhibition at 20 µM in experiment [1] is 42%.

Values taken from patent US20240083857A1, “2-Methyl-Quinazolines” (Bayer Pharma Aktiengesellschaft, priority 2017, published 2024).
